Results on two molecules are retold here after publication PMC10791743, “Selective CK1α degraders exert antiproliferative activity against a broad range of human cancer cell lines” (Nature Communications, 2024).

One data set can be described thus: Aqueous solubility assay. It counts as physicochemical. As to conditions: DPBS buffer. How it is done:
page 30: ADME Methods Aqueous solubility assay: Solubility assays were conducted using a Biomek FX lab automation workstation (Beckman Coulter, Inc., Fullerton, CA) and μSOL Evolution software (pION Inc., Woburn, MA). In a 96-well microplate (Cat. No: 3363, Corning Incorporated, Salt Lake, UT), 10 μL of a 10 mM test compound stock in DMSO was added to 190 μL 1-propanol (Thermo Scientific, spectroscopy, Cat. No: 434360010, Fair Lawn, NJ) to create a reference stock plate. From this reference stock plate, 5 μL solutions were mixed with 70 μL 1-propanol and 75 μL Dulbecco's Phosphate Buffered Saline (DPBS, 1X, GibcoTM, Cat. No: 14190-144, Thermo Fisher Scientifics, Waltham, MA) to generate the reference plate (high sensitivity UV plate, Cat. No: 110286, pION Inc., Woburn, MA). In a 96-well storage plate (Cat. No: 201276-100, Agilent, Santa Clara, CA), 6 μL of a 10 mM test compound stock was added to 600 μL buffer, mixed, sealed, and incubated at room temperature for 18 hours. […] UV spectra of the reference and sample plates were then read, and calculations based on the area under the curve (AUC) of the UV spectra were performed using μSOL Evolution software. […] The medium in the wells was changed every other day, and the trans epithelial electrical resistance (TEER) value was measured

For the next data set, the system named is MOLM-13 cells. Description: Lenalidomide competition assay (40 μM lenalidomide), MOLM-13 viability. Conditions: lenalidomide 40 μM. It counts as cell-based, human. As to the method:
Having identified SJ7095 as a compound with a potent antiproliferative effect in MOLM-13 cells, we next examined whether the observed effect was CRBN-dependent. […] In an orthogonal approach, we tested SJ7095 in wild-type and CRBN-knockout MOLM-13 cells in a cell viability assay (Supplementary Fig. 1b).
MOLM-13 cells were plated in Corning 8804BC white 384-well assay plates at the appropriate cell number per well and incubated overnight at 37 °C in a humidified 5 % CO2 incubator. Compounds were transferred to the assay plate from a dose-response plate using a Labcyte Echo 650 Acoustic Liquid Handler (Beckman Coulter , USA). Cytotoxicity was determined following 72 h of incubation using Promega’s CellTiter-Glo reagent according to the manufacturer’s recommendation.
Luminescence was measured on the Envision plate reader (PerkinElmer, USA). Raw luminescence relative light unit (RLU) values for each compound at each concentration were normalized to obtain % activity using the following equation (1): 100 × [(mean(negctrl) – compound)/(mean (negctrl) – mean (posctrl))]. The % activity was converted to % viability using the following equation (2):
(100 – % activity), and then pooled from replicate experiments prior to fitting. Here, negctrl and posctrl refer to the negative (DMSO) and positive controls (staurosporine) on each plate. […]

Molecules are shown by their SMILES. Values after ≈ are worked out from the molar mass of the structure shown.

Take `O=C1CCC(N2Cc3cc(Nc4noc5ccccc45)ccc3C2=O)C(=O)N1` (centres unmarked) [SJ3149]: the solubility at 18 h in “Aqueous solubility assay” is 36 µM (≈ 13.5 µg/mL). As for `O=C1CCC(N2Cc3c(CNC(=O)c4ccc(F)cc4)cccc3C2=O)C(=O)N1` (centres unmarked) [SJ7095], the “Antiproliferative effect in presence of excess lenalidomide” value in the data set on MOLM-13 cells was “abrogating the antiproliferative effects”.

A word on the solubility: it is how much of the substance goes into solution per volume. A lower solubility goes with a poorly soluble substance.
